One assay relates to mature melanocytes. Kind of assay: Differentiated/mature melanocytes and hair bulb cells, immunofluorescence. In kind it is in vivo, mouse. As for the experimental part: Loss of hair pigmentation can be due to defects in melanin synthesis, loss of differentiated melanocytes, or problems in MeSC maintenance. To understand how stress impacts the melanocyte lineage, RTX was injected into mice in anagen, when both MeSCs and differentiated melanocytes were present but located within distinct compartments—MeSCs were near to the bulge while differentiated melanocytes were at the hair bulb (FIG. 1E). […] These differentiated melanocytes continued to generate pigments, and the hair coat remained black (FIGS. 6F-6G). When hair follicles in the RTX-injected animals entered catagen and telogen, many have lost all MeSCs (FIG. 1E, Telo). Subsequently, when the next round of anagen initiated, differentiated melanocytes were not produced to color new hair shafts, and unpigmented hairs emerged (FIG. 1E, 2nd Ana, FIG. 6H). […] In this case, unpigmented hairs appeared as soon as new hairs emerged in the following anagen (FIGS. 7A-7B). […] MeSCs were also lost or reduced in mice subjected to restraint stress or chronic unpredictable stress (FIG. 7C). Since stress depleted MeSCs, the loss of hair pigmentation in all three conditions was permanent (FIG. 7D).
Quiescence is a key feature of many somatic stem cells. Loss of quiescence has been postulated to cause MeSC loss in Bcl2 mutants. To examine if stress alters MeSCs quiescence, RTX or norepinephrine was injected into mice that had entered full anagen, when MeSCs are normally quiescent. A dramatic increase in the number of proliferating MeSCs was seen within 24 hours after RTX or norepinephrine injection—about 50% of MeSCs became positive for Phospho-Histone H3, an M phase marker (FIG. 4B). This number is in sharp contrast to the MeSC proliferation seen in early anagen (˜6%), the only stage when MeSCs proliferate to self-renew (FIG. 11E).
Mouse skin samples were fixed using 4% paraformaldehyde (PFA) for 15 minutes at room temperature, washed 6 times with PBS, and immersed in 30% sucrose overnight at 4° C. Samples were then embedded in OCT (Sakura Finetek). 35˜50 μm sections were fixed in 4% paraformaldehyde (PFA) for 2 minutes and washed with PBS and PBST. Slides were then blocked using blocking buffer (5% donkey serum; 1% BSA, 2% cold water fish gelatin in 0.3% Triton in PBS) for 1 hour at room temperature, followed by staining with primary antibodies overnight at 4° C. and secondary antibody for 4 hours at room temperature. For sympathetic nerve density quantification, 90 μm sections were used. EdU was developed for 1 hour using the Click-It reaction according to manufacturer instructions (Thermo Fisher Scientific). TUNEL assay was performed according to manufacturer instructions (Roche). Fontana—Masson staining was performed according to manufacturer instructions (Market Lab ML7255). Antibodies used: TRP2 (Santa Cruz 10451, 1:800), tyrosine hydroxylase (rabbit, Millipore AB152, 1:1000 or sheep, Millipore AB1542, 1:150-1:300), c-Fos (Abcam, 190289, 1:1000), γ-H2AX (Cell Signaling, 9718, 1:400), phospho-histone H3 (rabbit, Cell Signaling Technology 3377S, 1:500), cleaved caspase 3 (rabbit, Cell Signaling Technology 9664S, 1:400), GFP (rabbit, Abcam ab290, 1:1000 or chicken, Ayes labs GFP-1010, 1:200), CD3 (eBioscience 14-0032-81, 1:800), CD11b (eBioscience 14-0112-81, 1:800), Phospho-CREB (Cell Signaling 9198, 1:800), MITF (Abcam ab12039, 1:400).

In a further assay the test system is sympathetic neurons. Kind of assay: c-FOS immunofluorescence in sympathetic ganglia. Format: in vivo, mouse. The following applies: after RTX injection.
In assay [1] the test system is melanocyte stem cells (MeSCs). Kind of assay: RNA-seq of FACS-purified MeSCs. Format: in vivo, mouse. Particulars: 12 hours after RTX injection. As for the experimental part: Examination of marker gene expression for diverse skin cell types confirmed successful enrichment for MeSCs (FIG. 12D). To uncover major molecular changes, Gene Ontology (GO) enrichment analysis was conducted (FIG. 5B). A list of known genes associated with MeSC proliferation and differentiation was curated (FIG. 5C, FIG. 12E). Moreover, a list of genes previously denoted for cell cycle entry was utilized to assess if cell cycle regulators are altered at the transcriptional level (FIG. 12F). Some of these key changes were also verified by quantitative RT-PCR (qRT-PCR) (FIG. 12G). […]
MeSCs were purified using FACS from control and stressed mice skin samples at telogen based on their expression of CD117 [7], starting from a population that is negative for CD140a, CD45, Sca1, and CD34 [57]. […] Single-end sequencing reads were obtained using Illumina NextSeq 500 platform. Sequencing reads from RNA-seq libraries were trimmed using Trim Galore! […] Reads with alignment quality <Q30 were discarded. Gene expression levels were normalized and differential genes were calculated using DEseq2 package in R [60]. […] Transcripts Per Kilobase Million (TPM) calculated from count tables of Control MeSC samples were used to determine the expression levels of adrenergic receptors and glucocorticoid receptor shown in FIG. 2C.

Assay [2] deals with melanocyte stem cells (MeSCs). Kind of assay: MeSC proliferation, Phospho-Histone H3 immunofluorescence. Particulars: within 24 hours after injection, full anagen.
Experimental: For RTX injection, mice received injections of RTX (30-100 μg/kg) in the flank for 1-3 days as described previously [15, 16, 51-56]. […] Control mice were treated with the vehicle only. RTX injection was done either in full anagen (P31-P36) or in 1st telogen (P21). […] RTX was given at Anagen VI (P31˜P36).
All images were acquired using a Zeiss LSM 880 confocal microscope or Keyence microscope using ×20 or ×40 magnification lenses. Images are presented as Maximum Intensity Projection images. For colocalization analysis, images are presented as a single Z stack.

1 molecule from patent US20230035479A1, “METHODS AND COMPOSITIONS FOR REDUCING HAIR GREYING” (President and Fellows of Harvard College, priority 2019, published 2023) can be followed below.

Some results are limits rather than exact numbers.

For `C=C(C)[C@]12C[C@@H](C)[C@@]34O[C@](Cc5ccccc5)(O[C@@H]1[C@@H]3C=C(COC(=O)Cc1ccc(O)c(OC)c1)C[C@]1(O)C(=O)C(C)=C[C@@H]41)O2` [RTX, resiniferatoxin], the “differentiated melanocytes in the same hair follicle” value with mature melanocytes (5 days after RTX injection in anagen) was “remained unperturbed”. For the same molecule, the “proliferation or apoptosis in mature melanocytes” value in the assay on mature melanocytes (after injection, full anagen) was “no changes in proliferation or apoptosis”. Besides, in the assay with sympathetic neurons, the “c-FOS induction in cell bodies of sympathetic neurons” value is reported as “Robust c-FOS induction”, the “time at which c-FOS induction diminishes” value is > 24 h, the “time of peak c-FOS induction” value was in the range of 2 to 4 h and the “time to c-FOS induction” value was ≤ 1 h. Besides, the “transcriptome changes in MeSCs” value in assay [1] was “upregulate proliferation and differentiation programs”. For the same molecule, the “MeSCs positive for Phospho-Histone H3” value in assay [2] is “about 50%”.
